Reference: patent US8962837B2, “Nitrogen heterocycle derivatives, preparation thereof and application thereof in human therapeutics” (Pierre Fabre Medicament, priority 2010, dated 2015)
Where two headings read alike, the source gives them in different places.

Legend:
sebaceous glands = assay: Topical application of SCD-1 inhibitory compounds to NMRI mice: reduction in number and size of sebaceous glands; type: in vivo; conditions: Mus musculus, 120 h, twice daily, treatment time 5 days; for inhibition in vivo at 0.3 %: concentration 0.3%; for inhibition in vivo at 1 %: concentration 1%
Method: Topical application of SCD-1 inhibitory compounds to NMRI mice: reduction in number and size of sebaceous glands.
Experimental protocol: Crl:NMRI male mice (24-26 g) are shaved (2×2 cm^2 minimum) 2-3 days before the first application of molecules under test. To prevent potential oral intake of the molecules, the animals are accommodated individually.
The molecules are solubilised in the ethanol/propylene glycol (30/70, v/v) vehicle are a maximum concentration of 1%. 50 μl of each preparation (molecule under test, or vehicle) are applied twice daily for 5 consecutive days on the 2 cm^2 shaved area, with the cone of a pipette with a number of to-and-fro movements. At least 6 hours after the final application, the mice are euthanised, the skin samples are taken and fixed immediately to produce paraffin sections; a histomorphometric analysis after Haematoxylin/Eosin staining is carried out.
For each animal, at least 3 sections approximately 10 mm in length are read blind by 3 people, and the efficacy of the molecules on sebaceous gland atrophy is assessed quantitatively (number) and qualitatively (relative score, size). The duration of action, the reversibility of the effect are verified in the same way by modifying the application sequences.

Human SCD-1 = Human SCD-1 (Homo sapiens (Human), UniProt O00767); assay: Human SCD-1 enzyme activity using HepG2 cell microsomes (conversion of stearic acid to oleic acid); type: biochemical; conditions: 20 minutes at 37° C., relative to 0.1% DMSO vehicle, read-out: HSCD-1 (HEPG2) IC50
Method: Human SCD-1 enzyme activity using HepG2 cell microsomes after treating with inhibitory compounds (% inhibition):
Human hepatocarcinoma HepG2 cells (ATCC, HB-8065) are cultured to confluence and trypsinised. The cell pellet is taken up with 10 mM Tris (pH 7.4) sucrose (250 mM) DTT (1 mM) buffer and the cells are lysed by sonication. The microsomes are obtained after centrifugation at 10,000 g for 20 minutes at 4° C. followed by centrifugation of the supernatant at 100,000 g for 60 minutes at 4° C. The pellet is taken up with 10 mM Tris (pH 7.4) sucrose (250 mM) buffer at 4° C. and the microsomal proteins are assayed and stored at −196° C. (liquid nitrogen).
The enzyme reaction measures the conversion of stearic acid (C18:0 fatty acid) to oleic acid (C18:1 fatty acid) by SCD-1. The enzyme reaction is started by adding 125 μg of HepG2 cell microsomal fraction to tubes (total reaction volume of 500 μl) containing 62 μM of stearic acid (45 μM of stearic acid 17 μM of [^14C] stearic acid) in a 100 mM phosphate buffer (pH 7.16) with 7.2 mM of ATP, 0.54 mM of CoA, 6 mM of MgCl2, 0.8 mM of NADH and the inhibitory compound or the vehicle (0.1% DMSO). The tubes are incubated for 20 minutes at 37° C. and the enzyme reaction is stopped by adding KOH (12%) and saponification for 30 minutes at 80° C. After acidification (3N HCl), the fatty acids are extracted twice with ethyl ether, evaporated in nitrogen before being taken up with methanol/dichloromethane (3:1). The reaction product (C18:1) is separated from the reaction substrate (C18:0) by HPLC (Perkin Elmer, C18 reverse phase column) coupled with an online radioactivity detector (FlowOne). The enzyme activity is calculated in picomoles of stearic acid converted into oleic acid per minute and per mg of protein. For each inhibitory compound, an IC50 is determined in relation to the reference enzyme activity (0.1% DMSO vehicle). Sterculic acid is the reference inhibitory compound (Gomez F. E., Bauman D. E., Ntambi J. M., Fox B. G. Effects of sterculic acid on stearoyl-CoA desaturase in differentiating 3T3-L1 adipocytes. Biochem Biophys Res Commun. 300 316-326 (2003).

HCT-116 tumour cells = assay: Cytotoxic / anti-proliferation activity on human colon cancer cell line HCT-116 (ATP-lite); type: cell-based; conditions: 72 hours
Method: Cytotoxic activities with respect to human colon cancer cell lines (HCT-116):
HCT-116 tumour cells are inoculated in a 96-well plate in RPMI 1640 medium to which 5% foetal calf serum is added (100 μl/well, respectively at 1.5 10^4 cells/ml). After 24 hours of incubation at 37° C. in an incubator at 5% CO2, 11 μl of medium containing the compound under test at a concentration 10 times greater than the final concentration are added. The plates are incubated for a further 72 hours. Cell survival is evaluated by measuring the luminescence after releasing ATP in the medium using the cell lysis, luciferase and luciferin solutions contained in the ATP-lite-M™ kit as recommended by the manufacturer (Packard, Rungis, France). Each experimental condition was replicated at least three times independently with one well reading in sextuplet per dose interval.

[1] = HCT-116, HTC116 human tumour line, read-out: EC50 (anti-proliferation activity)
[2] = Homo sapiens, HCT-116 tumour line cells, read-out: 50% inhibitory concentration (EC50), concentration inhibiting cell proliferation by 50%

Sequence of Human SCD-1 (O00767 whole entry): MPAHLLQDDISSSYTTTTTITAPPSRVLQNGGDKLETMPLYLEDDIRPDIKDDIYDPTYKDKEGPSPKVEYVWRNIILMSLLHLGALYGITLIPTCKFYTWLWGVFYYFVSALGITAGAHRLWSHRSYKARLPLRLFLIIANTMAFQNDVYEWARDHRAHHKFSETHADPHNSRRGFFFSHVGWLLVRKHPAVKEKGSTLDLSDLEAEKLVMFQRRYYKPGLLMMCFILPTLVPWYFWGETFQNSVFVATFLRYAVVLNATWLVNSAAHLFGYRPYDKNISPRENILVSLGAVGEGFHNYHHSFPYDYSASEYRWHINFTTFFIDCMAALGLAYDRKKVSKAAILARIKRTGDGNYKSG

Compound | IC50 (Human SCD-1) | also measured
Cn1cc(Cl)nc(N2CCC(Oc3cc(C(F)(F)F)ccc3Cl)CC2)c1=O [Example 8] | 100 to 300 nM | inhibition in vivo at 0.3 % (sebaceous glands): 95%
Cc1ccccc1OC1CCN(c2nc(Cl)cn(C)c2=O)CC1 [Example 9, 5-Chloro-1-methyl-3-(4-o-tolyloxy-piperidin-1-yl)-1H-pyrazin-2-one] | 100 to 1000 nM | inhibition in vivo at 0.3 % (sebaceous glands): 43%
FC(F)(F)c1ccc(Cl)c(OC2CCN(c3nccnn3)C2)c1 (stereo not drawn) [Example 42, 3-[3-(2-Chloro-5-trifluoromethyl-phenoxy)-pyrrolidin-1-yl]-[1,2,4]triazine] | 300 to 1000 nM | 
Cc1cnnc(N2CCC(Oc3cc(F)ccc3Cl)CC2)n1 [Example 25, 3-[4-(2-Chloro-5-fluoro-phenoxy)-piperidin-1-yl]-5-methyl-[1,2,4]triazine] | 100 nM | 
Cc1cnnc(N2CCC(Oc3ccccc3Cl)CC2)n1 [Example 28, 3-[4-(2-Chloro-phenoxy)-piperidin-1-yl]-5-methyl-[1,2,4]triazine] | 300 to 1000 nM | 
Cn1cc(Cl)nc(N2CCC(Oc3ccccc3Cl)CC2)c1=O [Example 6, 5-Chloro-3-[4-(2-chloro-phenoxy)-piperidin-1-yl]-1-methyl-1H-pyrazin-2-one] | 100 to 1000 nM | inhibition in vivo at 0.3 % (sebaceous glands): 79%
Fc1ccc(Cl)c(OC2CCN(c3nccnn3)CC2)c1 [Example 18, 3-[4-(2-Chloro-5-fluoro-phenoxy)-piperidin-1-yl]-[1,2,4]triazine] | 30 nM | 
CC1CN(c2nccnn2)CCC1Oc1cc(C(F)(F)F)ccc1Cl (stereo not drawn) [Example 37, 3-[4-(2-Chloro-5-trifluoromethyl-phenoxy)-3-methyl-piperidin-1-yl]-[1,2,4]triazine] | 100 to 1000 nM | 
CCCCCCCCC1=C(CCCCCCCC(=O)O)C1 [Sterculic acid, reference compound] | 300 nM | 
FC(F)(F)c1ccccc1OC1CCN(c2nccnn2)CC1 [Example 14, 3-[4-(2-Trifluoromethyl-phenoxy)-piperidin-1-yl]-[1,2,4]triazine] | 100 to 1000 nM | 
Cc1nnc(N2CCC(Oc3cc(C(F)(F)F)ccc3Cl)CC2)nc1C [Example 19, 3-[4-(2-Chloro-5-trifluoromethyl-phenoxy)-piperidin-1-yl]-5,6-dimethyl-[1,2,4]triazine] | 100 to 1000 nM | 
CC1CN(c2nccnn2)CCC1Oc1cc(Cl)ccc1Cl (stereo not drawn) [Example 38, 3-[4-(2,5-Dichloro-phenoxy)-3-methyl-piperidin-1-yl]-[1,2,4]triazine] | 300 to 1000 nM | 
FC(F)(F)c1ccc(Cl)c(OC2CCN(c3nccnn3)CC2)c1 [Example 17, 3-[4-(2-Chloro-5-trifluoromethyl-phenoxy)-piperidin-1-yl]-[1,2,4]triazine] | 100 nM | inhibition in vivo at 1 % (sebaceous glands): 97%; EC50 (HCT-116 tumour cells; [1]): 230 nM; EC50 (HCT-116 tumour cells; [2]): 230 nM
O=[N+]([O-])c1ccc(Cl)c(OC2CCN(c3nccnn3)CC2)c1 [Example 32, 3-[4-(2-Chloro-5-nitro-phenoxy)-piperidin-1-yl]-[1,2,4]triazine] | 30 to 100 nM | 
Cn1nccc(N2CCC(Oc3cc(C(F)(F)F)ccc3Cl)CC2)c1=O [Example 40, 4-[4-(2-Chloro-5-trifluoromethyl-phenoxy)-piperidin-1-yl]-2-methyl-2H-pyridazin-3-one] | 100 to 300 nM | inhibition in vivo at 0.1 % (sebaceous glands; concentration 0.1%): 36%
Fc1cc(Br)c(OC2CCN(c3nccnn3)CC2)cc1F [Example 33, 3-[4-(2-Bromo-4,5-difluoro-phenoxy)-piperidin-1-yl]-[1,2,4]triazine] | 10 to 100 nM | 
Cn1ccnc(N2CCC(Oc3ccccc3C(F)(F)F)CC2)c1=O [Example 11, 1-Methyl-3-[4-(2-trifluoromethyl-phenoxy)-piperidin-1-yl]-1H-pyrazin-2-one] | 100 nM | inhibition in vivo at 1 % (sebaceous glands): 45%
Cc1cnc(N2CCC(Oc3cc(F)ccc3Cl)CC2)nn1 [Example 30, 3-[4-(2-Chloro-5-fluoro-phenoxy)-piperidin-1-yl]-6-methyl-[1,2,4]triazine] | 100 nM | 
O=[N+]([O-])c1ccccc1OC1CCN(c2nccnn2)CC1 [Example 35, 3-[4-(2-Nitro-phenoxy)-piperidin-1-yl]-[1,2,4]triazine] | 100 to 1000 nM | 
Cn1cc(Cl)nc(N2CCC(Oc3ccccc3C(F)(F)F)CC2)c1=O [Example 7, 5-Chloro-1-methyl-3-[4-(2-trifluoromethyl-phenoxy)-piperidin-1-yl]-1H-pyrazin-2-one] | 100 to 300 nM | inhibition in vivo at 0.3 % (sebaceous glands): 75%
Cn1cc(Cl)nc(N2CCC(Oc3cc(F)ccc3Cl)CC2)c1=O [Example 12, 5-Chloro-3-[4-(2-chloro-5-fluoro-phenoxy)-piperidin-1-yl]-1-methyl-1H-pyrazin-2-one] | 10 to 30 nM | inhibition in vivo at 0.3 % (sebaceous glands): 94%; EC50 (HCT-116 tumour cells; [1]): 60 nM; EC50 (HCT-116 tumour cells; [2]): 60 nM
Cc1cnnc(N2CCC(Oc3cc(C(F)(F)F)ccc3Cl)CC2)n1 [Example 27, 3-[4-(2-Chloro-5-trifluoromethyl-phenoxy)-piperidin-1-yl]-5-methyl-[1,2,4]triazine] | 300 nM | 
FC(F)(F)c1ccccc1NC1CCN(c2nccnn2)CC1 [Example 36] | 30 nM | 
Clc1ccccc1OC1CCN(c2nccnn2)CC1 [Example 13, 3-[4-(2-Chloro-phenoxy)-piperidin-1-yl]-[1,2,4]triazine] | 100 to 1000 nM | 
